Data on 32 compounds can be found in ChEMBL document CHEMBL6087402, “Design, synthesis, and in vitro and in vivo biological evaluation of dihydroartemisinin derivatives as potent anti-cancer agents with ferroptosis-inducing and apoptosis-activating properties” (Eur J Med Chem, 2025).

In general, IC50 refers to the concentration that gives 50% inhibition. Read a high IC50 as a need for much substance.

Assay type in all cases: functional, cell-based
For one assay, the system named is A549. As to the kind of experiment: Anti-proliferative activity against human A549 cells incubated for 72 hrs by MTT assay. The following applies: A549, 72 h. (Formazan colour is commonly taken as a measure of viable cells.)
Another assay concerns Bel-7402. Description: Anti-proliferative activity against human Bel-7402 cells incubated for 72 hrs by MTT assay. The note with it: Bel-7402, 72 h.
The next assay concerns HCT-116. As to the kind of experiment: Anti-proliferative activity against human HCT-116 cells incubated for 72 hrs by MTT assay. The note with it: HCT-116, 72 h.
In another assay the test system is SW-620. As to the kind of experiment: Anti-proliferative activity against human SW620 cells incubated for 72 hrs by MTT assay. The note with it: SW-620, 72 h.

Regarding `C[C@@H]1CC[C@H]2[C@@H](C)C(OC(=O)CCC(=O)OCc3cn(-c4ccc(Cl)cc4)nn3)O[C@@H]3O[C@@]4(C)CC[C@H]1[C@]32OO4` (stereo partly drawn), the IC50 was > 10 µM in the assay on A549, > 10 µM in the assay with Bel-7402, 3.03 µM in the assay with HCT-116 and 1.1 µM in the assay on SW-620.
As for `COc1cc(-n2cc(C(=O)OC3O[C@@H]4O[C@@]5(C)CC[C@@H]6[C@H](C)CC[C@@H]([C@H]3C)[C@@]46OO5)nn2)cc(OC)c1OC` (stereo partly drawn), the IC50 with A549 was > 10 µM; in the assay on Bel-7402, > 10 µM; in the assay with HCT-116, 4.32 µM; in the assay with SW-620, 1.9 µM.
Regarding `C[C@@H]1CC[C@H]2[C@@H](C)C(OC(=O)c3ccc(Cn4ccc5ccc(F)cc54)cc3)O[C@@H]3O[C@@]4(C)CC[C@H]1[C@]32OO4` (stereo partly drawn), the 50% inhibitory concentration (IC50) in the assay with A549 was 0.89 µM; in the assay with Bel-7402 it was > 10 µM; with HCT-116, 0.47 µM; with SW-620, 4.36 µM.
Taken in the same sequence, the figures for `C[C@@H]1CC[C@H]2[C@@H](C)C(OC(=O)CCC(=O)OCc3cn(-c4ccc(F)cc4)nn3)O[C@@H]3O[C@@]4(C)CC[C@H]1[C@]32OO4` (stereo partly drawn) were 6.28 µM, > 10 µM, 2.21 µM and 2.33 µM.
Taken in the same sequence, the figures for `C[C@@H]1CC[C@H]2[C@@H](C)C(OC(=O)c3ccc(Cn4cncn4)cc3)O[C@@H]3O[C@@]4(C)CC[C@H]1[C@]32OO4` (stereo partly drawn) were 7.19 µM, > 10 µM, 3.39 µM and 8.32 µM.
As for `CCCCCCCNC(=O)OC1O[C@@H]2O[C@@]3(C)CC[C@@H]4[C@H](C)CC[C@@H]([C@H]1C)[C@@]24OO3` (stereo partly drawn), the IC50 was 8 µM in the assay with A549, > 10 µM in the assay with Bel-7402, 1.19 µM in the assay on HCT-116 and 3.9 µM in the assay on SW-620.
As to `COc1ccc2[nH]cc(CCNC(=O)CCC(=O)OC3O[C@@H]4O[C@@]5(C)CC[C@@H]6[C@H](C)CC[C@@H]([C@H]3C)[C@@]46OO5)c2c1` (stereo partly drawn), the IC50 with A549 is > 10 µM; in the assay with Bel-7402 it was > 10 µM; in the assay with HCT-116, 6.64 µM; with SW-620, 7.28 µM.
For `COc1ccc(-n2cc(COC(=O)CCC(=O)OC3O[C@@H]4O[C@@]5(C)CC[C@@H]6[C@H](C)CC[C@@H]([C@H]3C)[C@@]46OO5)nn2)cc1OC` (stereo partly drawn), the IC50 in the assay on A549 is 8.03 µM; in the assay with Bel-7402, > 10 µM; in the assay with HCT-116 it was 1.79 µM; in the assay on SW-620, 2.89 µM.
Taken in the same sequence, the figures for `COc1ccc(-n2cc(COC(=O)CCC(=O)OC3O[C@@H]4O[C@@]5(C)CC[C@@H]6[C@H](C)CC[C@@H]([C@H]3C)[C@@]46OO5)nn2)cc1` (stereo partly drawn) were 7.18 µM, > 10 µM, 2.78 µM and 1.59 µM.
For the compound `C[C@@H]1CC[C@H]2[C@@H](C)C(OC(=O)CCC(=O)NCCc3c[nH]c4ccccc34)O[C@@H]3O[C@@]4(C)CC[C@H]1[C@]32OO4` (stereo partly drawn), the IC50 is > 10 µM in the assay with A549, > 10 µM with Bel-7402, 6.74 µM in the assay with HCT-116 and 1.81 µM in the assay with SW-620.
`C[C@@H]1CC[C@H]2[C@@H](C)C(OC(=O)CCc3nc(-c4ccc(F)cc4)no3)O[C@@H]3O[C@@]4(C)CC[C@H]1[C@]32OO4` (stereo partly drawn): the IC50 came out at 6.55 µM with A549, 5.07 µM with Bel-7402, 2.94 µM with HCT-116 and 7.17 µM with SW-620.
Taken in the same sequence, the figures for `C[C@@H]1CC[C@H]2[C@@H](C)C(OC(=O)c3ccc(Cn4cc(Cl)cn4)cc3)O[C@@H]3O[C@@]4(C)CC[C@H]1[C@]32OO4` (stereo partly drawn) were 5.07 µM, > 10 µM, 2.6 µM and 5.17 µM.
Taken in the same sequence, the figures for `C[C@@H]1CC[C@H]2[C@@H](C)C(OC(=O)c3cn(-c4ccc(F)cc4)nn3)O[C@@H]3O[C@@]4(C)CC[C@H]1[C@]32OO4` (stereo partly drawn) were > 10 µM, > 10 µM, 3.38 µM and 9.51 µM.
Taken in the same sequence, the figures for `C[C@@H]1CC[C@H]2[C@@H](C)C(OC(=O)c3ccc(CN4CCCCC4)cc3)O[C@@H]3O[C@@]4(C)CC[C@H]1[C@]32OO4` (stereo partly drawn) were > 10 µM, > 10 µM, 2.31 µM and 7.1 µM.
On to `C[C@@H]1CC[C@H]2[C@@H](C)C(OC(=O)CCC(=O)OCc3cn(-c4ccccc4)nn3)O[C@@H]3O[C@@]4(C)CC[C@H]1[C@]32OO4` (stereo partly drawn), for which the IC50 with A549 was 6.51 µM; with Bel-7402, > 10 µM; in the assay on HCT-116, 2.38 µM; in the assay with SW-620, 1.79 µM.
For `C[C@@H]1CC[C@H]2[C@@H](C)C(OC(=O)CCc3nc(-c4ccccc4)no3)O[C@@H]3O[C@@]4(C)CC[C@H]1[C@]32OO4` (stereo partly drawn), the IC50 with A549 worked out at 9.1 µM; with Bel-7402, 3.99 µM; in the assay on HCT-116, 4.35 µM; in the assay with SW-620 it was 7.9 µM.
Taken in the same sequence, the figures for `C[C@@H]1CC[C@H]2[C@@H](C)C(OC(=O)c3ccc(Cn4cccn4)cc3)O[C@@H]3O[C@@]4(C)CC[C@H]1[C@]32OO4` (stereo partly drawn) were 7.01 µM, > 10 µM, 2.31 µM and > 10 µM.
Taken in the same sequence, the figures for `C[C@@H]1CC[C@H]2[C@@H](C)C(OC(=O)c3cnc4ccccc4c3)O[C@@H]3O[C@@]4(C)CC[C@H]1[C@]32OO4` (stereo partly drawn) were > 10 µM, 8.4 µM, 2.62 µM and > 10 µM.
Taken in the same sequence, the figures for `C[C@@H]1CC[C@H]2[C@@H](C)C(OC(=O)c3cccc4ncccc34)O[C@@H]3O[C@@]4(C)CC[C@H]1[C@]32OO4` (stereo partly drawn) were > 10 µM, > 10 µM, 3.73 µM and 3.01 µM.
As for `C[C@@H]1CC[C@H]2[C@@H](C)C(OC(=O)c3ccc(Cn4cc(Br)cn4)cc3)O[C@@H]3O[C@@]4(C)CC[C@H]1[C@]32OO4` (stereo partly drawn), the concentration for half-maximal inhibition (IC50) in the assay with A549 was 4.9 µM; with Bel-7402, 8.53 µM; with HCT-116, 1.9 µM; in the assay on SW-620 it was > 10 µM.
For `COc1ccc(-c2noc(CCC(=O)OC3O[C@@H]4O[C@@]5(C)CC[C@@H]6[C@H](C)CC[C@@H]([C@H]3C)[C@@]46OO5)n2)cc1` (stereo partly drawn), the concentration for half-maximal inhibition (IC50) with A549 was > 10 µM; with Bel-7402, 4.96 µM; with HCT-116 it was 3.48 µM; with SW-620, > 10 µM.
Regarding `C[C@@H]1CC[C@H]2[C@@H](C)C(OC(=O)CCc3nc(-c4ccc(Cl)c(Cl)c4)no3)O[C@@H]3O[C@@]4(C)CC[C@H]1[C@]32OO4` (stereo partly drawn), the IC50 is 9.09 µM with A549, > 10 µM in the assay with Bel-7402, 2.13 µM in the assay with HCT-116 and > 10 µM with SW-620.
Regarding `CCCCNC(=O)OC1O[C@@H]2O[C@@]3(C)CC[C@@H]4[C@H](C)CC[C@@H]([C@H]1C)[C@@]24OO3` (stereo partly drawn), the IC50 in the assay with A549 is > 10 µM; with Bel-7402, > 10 µM; with HCT-116 it was 3.51 µM; in the assay with SW-620, > 10 µM.
Turning to `COc1ccc(-n2cc(C(=O)OC3O[C@@H]4O[C@@]5(C)CC[C@@H]6[C@H](C)CC[C@@H]([C@H]3C)[C@@]46OO5)nn2)cc1` (stereo partly drawn), the IC50 with A549 is > 10 µM; in the assay on Bel-7402 it was 8.7 µM; in the assay on HCT-116, 3.18 µM; in the assay with SW-620, 8.4 µM.
Taken in the same sequence, the figures for `C[C@@H]1CC[C@H]2[C@@H](C)C(OC(=O)NC(=O)c3ccccc3)O[C@@H]3O[C@@]4(C)CC[C@H]1[C@]32OO4` (stereo partly drawn) were > 10 µM, > 10 µM, 5.48 µM and > 10 µM.
Taken in the same sequence, the figures for `C[C@@H]1CC[C@H]2[C@@H](C)C(OC(=O)c3cn(-c4ccccc4)nn3)O[C@@H]3O[C@@]4(C)CC[C@H]1[C@]32OO4` (stereo partly drawn) were > 10 µM, > 10 µM, 3.41 µM and 7.22 µM.
On to `C[C@@H]1CC[C@H]2[C@@H](C)C(OC(=O)c3cn(-c4ccc(Br)cc4)nn3)O[C@@H]3O[C@@]4(C)CC[C@H]1[C@]32OO4` (stereo partly drawn), for which the IC50 in the assay on A549 was > 10 µM; in the assay with Bel-7402 it was > 10 µM; with HCT-116, 3.87 µM; with SW-620, 7.42 µM.
Turning to `C[C@@H]1CC[C@H]2[C@@H](C)C(OC(=O)c3ccc4ncccc4c3)O[C@@H]3O[C@@]4(C)CC[C@H]1[C@]32OO4` (stereo partly drawn), the IC50 with A549 was > 10 µM; with Bel-7402, > 10 µM; in the assay with HCT-116 it was 3.22 µM; in the assay on SW-620, 3.02 µM.
For `C[C@@H]1CC[C@H]2[C@@H](C)C(OC(=O)c3cc4ccccc4cn3)O[C@@H]3O[C@@]4(C)CC[C@H]1[C@]32OO4` (stereo partly drawn), the IC50 was > 10 µM in the assay with A549, > 10 µM in the assay on Bel-7402, 5.51 µM in the assay on HCT-116 and 4.81 µM with SW-620.
In the case of `C[C@@H]1CC[C@H]2[C@@H](C)C(OC(=O)CCc3nc(-c4ccc(Cl)cc4)no3)O[C@@H]3O[C@@]4(C)CC[C@H]1[C@]32OO4` (stereo partly drawn), the IC50 in the assay on A549 was 6.79 µM; in the assay on Bel-7402, 7.05 µM; with HCT-116, 3.68 µM; in the assay with SW-620, > 10 µM.
Taken in the same sequence, the figures for `C[C@@H]1CC[C@H]2[C@@H](C)C(OC(=O)c3cn(-c4ccc([N+](=O)[O-])cc4)nn3)O[C@@H]3O[C@@]4(C)CC[C@H]1[C@]32OO4` (stereo partly drawn) were > 10 µM, > 10 µM, > 10 µM and 4.22 µM.
Taken in the same sequence, the figures for `C[C@@H]1CC[C@H]2[C@@H](C)C(OC(=O)c3cn(-c4ccc(Cl)cc4)nn3)O[C@@H]3O[C@@]4(C)CC[C@H]1[C@]32OO4` (stereo partly drawn) were > 10 µM, 9.24 µM, 3.12 µM and 8.21 µM.
